From BindingDB's records for doi:10.1021/bi3009278 (University of Wisconsin, 2012) come the findings set out here.

The structures appear in SMILES notation.

For the assay, the target named is Lysine-specific demethylase 5A (Homo sapiens, UniProt P29375). Kind of assay: Fluorescence Polarization Binding Assay. (In general: Polarisation of emitted light reports the rotation of a fluorescent probe.)
Lysine-specific demethylase 5A, sequence (P29375 whole entry): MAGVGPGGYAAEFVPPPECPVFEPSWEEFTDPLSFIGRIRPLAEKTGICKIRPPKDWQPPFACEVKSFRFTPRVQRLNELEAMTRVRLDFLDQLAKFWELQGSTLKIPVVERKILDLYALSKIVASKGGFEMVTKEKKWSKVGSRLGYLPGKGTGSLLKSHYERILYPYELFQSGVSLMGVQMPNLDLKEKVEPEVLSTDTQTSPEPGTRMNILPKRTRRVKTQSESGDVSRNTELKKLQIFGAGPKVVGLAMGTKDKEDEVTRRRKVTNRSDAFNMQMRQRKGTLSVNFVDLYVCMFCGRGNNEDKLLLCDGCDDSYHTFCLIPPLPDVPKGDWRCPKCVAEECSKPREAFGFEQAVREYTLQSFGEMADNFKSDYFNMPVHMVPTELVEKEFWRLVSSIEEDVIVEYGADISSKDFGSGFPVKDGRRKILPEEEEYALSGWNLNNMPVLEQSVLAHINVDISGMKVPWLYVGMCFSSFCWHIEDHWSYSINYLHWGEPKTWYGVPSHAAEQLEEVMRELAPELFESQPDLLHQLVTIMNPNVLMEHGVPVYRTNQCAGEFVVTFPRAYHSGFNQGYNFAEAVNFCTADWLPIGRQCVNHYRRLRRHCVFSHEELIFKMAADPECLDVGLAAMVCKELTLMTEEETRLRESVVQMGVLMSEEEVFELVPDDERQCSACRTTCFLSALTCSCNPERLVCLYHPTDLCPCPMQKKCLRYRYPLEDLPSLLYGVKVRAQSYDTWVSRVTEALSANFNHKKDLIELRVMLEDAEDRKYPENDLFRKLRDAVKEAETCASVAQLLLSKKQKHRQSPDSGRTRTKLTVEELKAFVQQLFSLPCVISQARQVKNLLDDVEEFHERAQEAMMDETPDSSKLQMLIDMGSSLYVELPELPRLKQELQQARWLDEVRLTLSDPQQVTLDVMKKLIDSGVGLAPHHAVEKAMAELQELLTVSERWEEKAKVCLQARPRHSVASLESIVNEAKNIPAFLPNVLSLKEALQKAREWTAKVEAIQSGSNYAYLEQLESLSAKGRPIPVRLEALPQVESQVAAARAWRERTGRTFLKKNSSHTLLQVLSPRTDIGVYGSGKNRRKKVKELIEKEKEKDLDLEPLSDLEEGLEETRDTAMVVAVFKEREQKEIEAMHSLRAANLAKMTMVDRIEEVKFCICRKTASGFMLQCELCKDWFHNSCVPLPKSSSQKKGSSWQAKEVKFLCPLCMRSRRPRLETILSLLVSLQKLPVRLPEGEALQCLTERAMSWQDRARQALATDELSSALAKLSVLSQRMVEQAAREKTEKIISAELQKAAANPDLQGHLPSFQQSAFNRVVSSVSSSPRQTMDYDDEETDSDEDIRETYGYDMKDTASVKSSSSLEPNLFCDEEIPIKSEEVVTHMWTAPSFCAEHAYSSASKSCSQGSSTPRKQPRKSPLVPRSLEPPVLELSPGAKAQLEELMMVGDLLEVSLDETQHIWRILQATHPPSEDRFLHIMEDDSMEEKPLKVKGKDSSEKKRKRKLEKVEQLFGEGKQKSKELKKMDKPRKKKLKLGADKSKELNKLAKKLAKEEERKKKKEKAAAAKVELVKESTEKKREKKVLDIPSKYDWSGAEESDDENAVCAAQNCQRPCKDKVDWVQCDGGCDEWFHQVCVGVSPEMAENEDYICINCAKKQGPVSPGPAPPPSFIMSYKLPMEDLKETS

Regarding `CCCCc1oc2ccccc2c1C(=O)c1cc(I)c(OCCN)c(I)c1` [Di-N-desethylaminodarone], the IC50 was found to be 26 µM.

Compound `CCCCc1oc2ccccc2c1C(=O)c1cc(I)c(OCC[N+](C)(C)C)c(I)c1` [WAG-003] showed an IC50 of 30 µM.

The term IC50 denotes the concentration at which inhibition is half-maximal. A high value points to lower potency.
